In patent US20220184000A1, “USE OF CANNABIDIOL IN THE TREATMENT OF DRAVET SYNDROME” (priority 2019, published 2022):

Legend:
Assay type in all cases: in vivo
Scn1a^+/− mice [1] = assay: Social interaction test, Study II; details: CBD 100 mg/kg s.c. twice daily
Experimental: (§1) Here, Scn1a^+/− were randomly divided into two groups and subcutaneously injected with either CBD (100 mg/kg twice daily; n=12) or its vehicle (ethanol:Kolliphor®:0.9% saline=2:1:17; n=29) from P8 onwards until P52 or death (whichever was earlier).
The social interaction test was conducted in the home cage of test mouse to assess the social behaviour of the animals (Sato, Mizuguchi, & Ikeda, 2013). On test day, cage mate(s) were removed from the home cage of the test mouse and the mouse remained in isolation for 15 minutes. A novel wild type mouse of same strain, same sex and similar weight to the test mouse was then introduced to the home cage of the test mouse. Activity was video recorded (Sony DCR-SX21E) for 10 minutes and the obtained video files were blinded at the end of all experiments. Time spent in active interactions (e.g. close following, sniffing, allogrooming/social grooming and mounting) and number of rearing (lifting the front paws on the air) occasions were coded offline using Observer XT 12 (Noldus, Netherlands). Aggressive behaviours were not considered as social interactions and were not coded. In this test, a reduced social interaction is considered as autistic-like behaviour (Sato et al., 2013), while increased rearing occasions is sign of defensive escapes (Kaplan et al., 2017).
In Study II, the data were analysed in GraphPad Prism 6 software. Survival curves of Scn1a^+/− vehicle-treated and Scn1a^+/− CBD-treated group were compared using a Mantel-Cox test. […] Data obtained from rotarod, gait, social interaction (active interaction), EPM, sucrose preference, RAM (RME) tests were normally distributed and the differences between the three groups were analysed by one-way ANOVA. […] Parametric data are presented in scattered dot plot in the figures and are expressed as mean±SEM. Non-parametric data are presented in box plot in the figures and are expressed as median, min to max, and interquartile range (IQR). […]

Scn1a^−/− mice = assay: Neonatal welfare scoring (TNW) in Scn1a^−/− mice, Study I
Experimental: (§2) 129S-Scn1a^tm1Keammjax heterozygote mice (Jackson Laboratory, USA) were maintained in and bred together to obtain Scn1a^−/− and wild type (WT) animals used for this Study (n=10 per group).
(§3) Following genotyping, animals were randomly divided into four groups WT vehicle-treated, WT CBD-treated, Scn1a^−/− vehicle-treated and Scn1a^−/− CBD-treated (n=10/group). They were injected subcutaneously twice daily with either CBD (100 mg/kg) or its vehicle (ethanol:Kolliphor®:0.9% saline=2:1:17) from P8 until P25 or death (whichever was earlier).
(§4) A twice daily welfare check was conducted throughout the entire duration of the study. Drug administration was conducted at 0800 h and followed by welfare checks. Conversely, afternoon welfare checks were conducted from 1600 h and followed by drug administration in order to provide the maximum possible time between doses. […]
(§5) The parameters used for the welfare assessment were: weight, natural activity (NA; 0-3), reflex/response to touch (RT; 0-3), orbital tightening (OT; 0-2), and body condition score (BC; 1-3). A total neonatal welfare score (TNW; range 0-8) was calculated by adding together scores from NA, RT, and […].
(§6) In Study I, the welfare parameters were analysed using SPSS 24 (IBM SPSS Statistics®, UK), whilst survival data were analysed using GraphPad Prism 6 software (GraphPad Software, Inc., USA). […] All the data are expressed as mean±SEM. […]

wild type (WT) mice = assay: Neonatal welfare scoring (TNW) in wild type mice, Study I
Experimental: as §2, §3, §4, §5, §6

Scn1a^+/− mice [2] = assay: Elevated plus maze (EPM) test, anxiety-like behaviour, Study II; details: CBD 100 mg/kg s.c. twice daily
Experimental: as §1
The elevated plus maze (EPM) test was performed to assess the level of anxiety in animals (M. Chen et al., 2017). The wooden test apparatus consists of two closed arms (50×10×40 cm) and two open arms (50×10 cm) connected via a central platform (10×10 cm) and raised at a height of 50 cm above the floor. Each animal was placed on the central platform facing towards an open arm. Activity was video recorded (Swann SRDVR-16440H, UK) for 5 minutes. The video files were blinded and coded offline at the end of all experiments using Observer XT 12 (Noldus, Netherlands). Time spent on open arms was inversely related to the level of anxiety.
In Study II, the data were analysed in GraphPad Prism 6 software. […] Data obtained from rotarod, gait, social interaction (active interaction), EPM, sucrose preference, RAM (RME) tests were normally distributed and the differences between the three groups were analysed by one-way ANOVA. […] Parametric data are presented in scattered dot plot in the figures and are expressed as mean±SEM. Non-parametric data are presented in box plot in the figures and are expressed as median, min to max, and interquartile range (IQR). […]

## C=C(C)[C@@H]1CCC(C)=C[C@H]1c1c(O)cc(CCCCC)cc1O [CBD, cannabidiol]
Scn1a^+/− mice [1]; p=0.55
  rearing events, Scn1a^+/− CBD-treated versus WT vehicle-treated: No difference
Scn1a^+/− mice [1]; statement describes vehicle group relative to CBD group (n=10), p=0.0003, FIG. 4A
  time spent on active interaction, Scn1a^+/− vehicle-treated compared to Scn1a^+/− CBD-treated: significantly less time
Scn1a^+/− mice [1]; statement describes vehicle group relative to CBD group, p=0.0003, FIG. 4B
  number of rearing occasions, Scn1a^+/− vehicle-treated compared to Scn1a^+/− CBD-treated: significantly higher number of rearing occasions
Scn1a^−/− mice; Scn1a^−/− CBD-treated group, CBD 100 mg/kg s.c. twice daily from P8 until P25 or death, n=10, mean±SEM, score range 0-8, vehicle group 3.66±0.04
  mean total neonatal welfare (TNW) score: 2.85±0.04
Scn1a^−/− mice; from P12 to P16, CBD 100 mg/kg s.c. twice daily, p<0.01, FIG. 1A
  welfare scores versus vehicle-treated Scn1a^−/− mice (post hoc): delayed the worsening of welfare scores
Wild type (WT) mice; P8-P8.5, first day of treatment, CBD 100 mg/kg s.c. twice daily, p<0.05, FIG. 1A
  TNW score versus WT vehicle-treated animals (post hoc): improved TNW score
Wild type (WT) mice; WT CBD-treated group, CBD 100 mg/kg s.c. twice daily from P8 until P25, n=10, mean±SEM, score range 0-8, vehicle group 0.39±0.04
  mean total neonatal welfare (TNW) score: 0.24±0.04
Scn1a^+/− mice [2]; p=0.73
  time spent on open arms (EPM), Scn1a^+/− CBD-treated versus WT vehicle-treated: not different
Scn1a^+/− mice [2]; statement describes vehicle group relative to CBD group (n=10), p=0.02, FIG. 4C
  time spent on open arms (EPM), Scn1a^+/− vehicle-treated compared to Scn1a^+/− CBD-treated: significantly less time on the open arms
